Experimental data published in PMC4655241, “The Structure of a Novel Thermophilic Esterase from the Planctomycetes Species, Thermogutta terrifontis Reveals an Open Active Site Due to a Minimal ‘Cap’ Domain” (Frontiers in Microbiology, 2015).

Experiments:
[1] = target: T1, TtEst2 (Thermogutta terrifontis, UniProt A0A0X1KHD1); assay: X-ray crystal structure, soak; type: binding; details: carboxyl pocket of active site
T1 construct: mature form, predicted signal peptide removed; pLATE52 N-terminal His6 tag with WELQ protease site (cleavage not mentioned); E. coli BL21 (DE3); monomer; residues 1-283 modelled

[2] = target: T1, TtEst2; assay: pNP release, A410; type: biochemical; details: 1 mM substrate, 20 mM HEPES, 100 mM NaCl, pH 7.5, 25 C

T1 sequence (A0A0X1KHD1 entry or part of it): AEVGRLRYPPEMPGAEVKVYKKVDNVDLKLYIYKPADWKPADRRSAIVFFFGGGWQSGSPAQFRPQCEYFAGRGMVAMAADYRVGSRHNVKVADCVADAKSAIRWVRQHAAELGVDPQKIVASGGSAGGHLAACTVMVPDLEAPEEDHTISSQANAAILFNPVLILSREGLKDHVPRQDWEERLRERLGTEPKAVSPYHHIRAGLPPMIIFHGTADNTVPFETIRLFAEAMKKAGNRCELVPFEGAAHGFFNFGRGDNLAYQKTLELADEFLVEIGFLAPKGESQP

## CCCC(=O)O [butyrate]
[1]; pH 4.5, 25 mM soak, oxyanion hole, 1.79 A
  X-ray crystal structure, soak: 5AOB (butyrate bound)

## CC(=O)Oc1ccc([N+](=O)[O-])cc1 [pNP-acetate]
[2]
  pNP release, A410: The enzyme was most active toward pNP-acetate

## CCC(=O)O [propionate]
[1]; pH 4.5, 25 mM soak, oxyanion hole, 1.71 A
  X-ray crystal structure, soak: 5AOA (propionate bound)

## CCCCC(=O)O [valerate]
[1]; pH 4.5, soaked as 25 mM pNP-valerate, only valerate part seen, 1.79 A
  X-ray crystal structure, soak: 5AOC (valerate bound)
